{
  "source": "patent US20110152302A1",
  "about": "“Novel dicyclanil-based shelf stable aqueous suspension and non-aqueous solution pour-on and spray-on formulations useful for the prevention and treatment of insect infestation in animals” (priority 2009, published 2011)",
  "key": {"[1]": {"assay": "Maximum solubility of dicyclanil in non-aqueous solvents", "type": "physicochemical", "protocol": "(§1) Materials and Methods: To determine the range of potential non-aqueous solvents to be used in producing dicyclanil solution formulations, a range of solubility studies were performed. The method employed was to add 500 mg quantities of dicyclanil into 10 mL each of solvent. If the drug dissolved it was placed into the refrigerator overnight. Samples were then taken out of the refrigerator and checked for the emergence of precipitate after the sample had been returned to room temperature. Thereafter, dicyclanil was added to each solution, 100 mg each time, until no more dicyclanil would dissolve in the solvent (i.e. dicyclanil was added until the solution reached its saturation concentration for dicyclanil).\nResults: An initial range of solvents was obtained (TABLE 12)."}, "[2]": {"assay": "Stability of dicyclanil 5% PEG200 solutions, refrigerated and accelerated temperature, 5 days", "type": "physicochemical", "protocol": "Materials and Methods: A formulation was prepared in the following manner (concentration summarized in TABLE 16): • a) Loaded 90% PEG 200 • b) Added Dicyclanil with mixing • c) Made to volume with PEG 200 • d) Mixed until dissolved\nSeveral test formulations were made to determine their stability under refrigerated (2-8° C.) and accelerated temperature (70° C.) conditions for 5 days. DIC 021, 022 and 025 were prepared according to the method described above."}, "[3]": {"conditions": "more active than cyromazine; cited from earlier work"}, "[4]": {"assay": "Solubility of dicyclanil in solvents at 25° C.", "type": "physicochemical", "protocol": "as §1\nAs a result, a further range of solvents was tested. The solvents used for these solubility studies are defined in TABLE 13."}, "[5]": {"assay": "Dicyclanil crystal formation in water with 5% surfactant", "type": "physicochemical", "protocol": "A commercially manufactured batch of Dicyclanil Polymorph A was sourced. This crystalline form was confirmed by X-Ray Diffraction (FIG. 1). Studies were then conducted to determine the ability of various surfactants to prevent the growth of dicyclanil crystals suspended in water. Nonyl phenol and octyl phenol ethoxylates were tested in an aqueous medium according to TABLE 2.\nGiven the inability of the surfactants of TABLE 2 to prevent crystal growth, a further range of surfactants was tested."}, "[6]": {"assay": "Solubility of dicyclanil in solvents at 70° C.", "type": "physicochemical"}, "[7]": {"conditions": "water with 5% surfactant, Most = >90%"}},
  "data": [
    {"compound": "N#Cc1c(N)nc(NC2CC2)nc1N", "note": "[Dicyclanil, 4,6-diamino-2-(cyclopropylamino)-5-pyrimidinecarbonitrile]", "values": [
      {"measurement": "solubility in words", "setting": "[1]; many of the commonly used veterinary topical solvents (TABLE 12)", "result": "quite insoluble"},
      {"measurement": "Maximum solubility (% w/v)", "setting": "[1]; solvent 2-Pyrollidone", "result": 1, "unit": "% w/v"},
      {"measurement": "Maximum solubility (% w/v)", "setting": "[1]; solvent Benzyl Alcohol", "result": "<1", "unit": "% w/v"},
      {"measurement": "Maximum solubility (% w/v)", "setting": "[1]; solvent DGBE", "result": 2, "unit": "% w/v"},
      {"measurement": "Maximum solubility (% w/v)", "setting": "[1]; solvent Glycofurol", "result": 6, "unit": "% w/v"},
      {"measurement": "Maximum solubility (% w/v)", "setting": "[1]; solvent IPM", "result": "<1", "unit": "% w/v"},
      {"measurement": "Maximum solubility (% w/v)", "setting": "[1]; solvent MIGLYOL 810", "result": "<1", "unit": "% w/v"},
      {"measurement": "Maximum solubility (% w/v)", "setting": "[1]; solvent MIGLYOL 840", "result": "<1", "unit": "% w/v"},
      {"measurement": "Maximum solubility (% w/v)", "setting": "[1]; solvent NMP", "result": 4, "unit": "% w/v"},
      {"measurement": "Maximum solubility (% w/v)", "setting": "[1]; solvent Propylene Glycol", "result": 1, "unit": "% w/v"},
      {"measurement": "solubility in PEG (in words)", "setting": "[2]; PEG", "result": "good solubility"},
      {"measurement": "concentration at which dicyclanil remains stable without additional excipients", "setting": "[2]; PEG-based formulations", "result": "at least 5%"},
      {"measurement": "activity relative to cyromazine", "setting": "[3]", "result": 10, "unit": "times"},
      {"measurement": "solubility of dicyclanil, soluble at 5%", "setting": "[4]; 25° C., BA", "result": "less"},
      {"measurement": "solubility of dicyclanil, soluble at 5%", "setting": "[4]; 25° C., DGBE", "result": "less"},
      {"measurement": "solubility of dicyclanil, soluble at 5%", "setting": "[4]; 25° C., DGMEE", "result": "less"},
      {"measurement": "solubility of dicyclanil, soluble at 5%", "setting": "[4]; 25° C., DMA", "result": "✓"},
      {"measurement": "solubility of dicyclanil, soluble at 6%", "setting": "[4]; 25° C., DMA", "result": "✓"},
      {"measurement": "solubility of dicyclanil, soluble at 7%", "setting": "[4]; 25° C., DMA", "result": "✓"},
      {"measurement": "solubility of dicyclanil, soluble at 8%", "setting": "[4]; 25° C., DMA", "result": "✓"},
      {"measurement": "solubility of dicyclanil, soluble at 9%", "setting": "[4]; 25° C., DMA", "result": "✓"},
      {"measurement": "solubility of dicyclanil, soluble at 10%", "setting": "[4]; 25° C., DMA, 10%", "result": "✓"},
      {"measurement": "solubility of dicyclanil, soluble at 11%", "setting": "[4]; 25° C., DMA, 11%", "result": "✓"},
      {"measurement": "solubility of dicyclanil, soluble at 12%", "setting": "[4]; 25° C., DMA, 12%", "result": "✓"},
      {"measurement": "solubility of dicyclanil, soluble at 13%", "setting": "[4]; 25° C., DMA, 13%", "result": "✓"},
      {"measurement": "solubility of dicyclanil, soluble at 14%", "setting": "[4]; 25° C., DMA, 14%", "result": "✓"},
      {"measurement": "solubility of dicyclanil, soluble at 15%", "setting": "[4]; 25° C., DMA, 15%", "result": "✓"},
      {"measurement": "solubility of dicyclanil, soluble at 16%", "setting": "[4]; 25° C., DMA, 16%", "result": "✓"},
      {"measurement": "solubility of dicyclanil, soluble at 17%", "setting": "[4]; 25° C., DMA, 17%", "result": "✓"},
      {"measurement": "solubility of dicyclanil, soluble at 18%", "setting": "[4]; 25° C., DMA, 18%", "result": "✓"},
      {"measurement": "solubility of dicyclanil, soluble at 5%", "setting": "[4]; 25° C., DMSO", "result": "✓"},
      {"measurement": "solubility of dicyclanil, soluble at 6%", "setting": "[4]; 25° C., DMSO", "result": "✓"},
      {"measurement": "solubility of dicyclanil, soluble at 7%", "setting": "[4]; 25° C., DMSO", "result": "✓"},
      {"measurement": "solubility of dicyclanil, soluble at 8%", "setting": "[4]; 25° C., DMSO", "result": "✓"},
      {"measurement": "solubility of dicyclanil, soluble at 9%", "setting": "[4]; 25° C., DMSO", "result": "✓"},
      {"measurement": "solubility of dicyclanil, soluble at 5%", "setting": "[4]; 25° C., EL", "result": "less"},
      {"measurement": "solubility of dicyclanil, soluble at 5%", "setting": "[4]; 25° C., GF", "result": "less"},
      {"measurement": "solubility of dicyclanil, soluble at 5%", "setting": "[4]; 25° C., IPA", "result": "less"},
      {"measurement": "solubility of dicyclanil, soluble at 5%", "setting": "[4]; 25° C., PEG200", "result": "✓"},
      {"measurement": "solubility of dicyclanil, soluble at 6%", "setting": "[4]; 25° C., PEG200", "result": "✓"},
      {"measurement": "solubility of dicyclanil, soluble at 7%", "setting": "[4]; 25° C., PEG200", "result": "✓"},
      {"measurement": "solubility of dicyclanil, soluble at 5%", "setting": "[4]; 25° C., PEG400", "result": "less"},
      {"measurement": "solubility of dicyclanil, soluble at 5%", "setting": "[4]; 25° C., PG", "result": "less"},
      {"measurement": "solubility in words", "setting": "[4]; Isopropyl Alcohol, Benzyl Alcohol, Ethyl Lactate, Propylene Glycol, Diethylene Glycol monobutyl Ether", "result": "quite insoluble"},
      {"measurement": "solubility of dicyclanil in PEG200", "setting": "[4]; at 25° C., PEG200", "result": 7, "unit": "%"},
      {"measurement": "solubility of dicyclanil in PEG400", "setting": "[4]; at 25° C., PEG400", "result": "less than 5%"},
      {"measurement": "Dicyclanil Crystal Formation, 3 days", "setting": "[5]; water, No surfactant added", "result": "Large crystals up to 200μ"},
      {"measurement": "Dicyclanil Crystal Formation, Initial", "setting": "[5]; water, No surfactant added", "result": "Long thin, up to 200μ"},
      {"measurement": "solubility of dicyclanil, soluble at 5%", "setting": "[6]; BA, 5%", "result": "less"},
      {"measurement": "solubility of dicyclanil, soluble at 5%", "setting": "[6]; DGBE, 5%", "result": "less"},
      {"measurement": "solubility of dicyclanil, soluble at 5%", "setting": "[6]; DGMEE, 5%", "result": "✓"},
      {"measurement": "solubility of dicyclanil, soluble at 5%", "setting": "[6]; DMA, 5%", "result": "✓"},
      {"measurement": "solubility of dicyclanil, soluble at 10%", "setting": "[6]; DMA", "result": "✓"},
      {"measurement": "solubility of dicyclanil, soluble at 15%", "setting": "[6]; DMA", "result": "✓"},
      {"measurement": "solubility of dicyclanil, soluble at 20%", "setting": "[6]; DMA", "result": "✓"},
      {"measurement": "solubility of dicyclanil, soluble at 25%", "setting": "[6]; DMA", "result": "✓"},
      {"measurement": "solubility of dicyclanil, soluble at 5%", "setting": "[6]; DMSO, 5%", "result": "✓"},
      {"measurement": "solubility of dicyclanil, soluble at 10%", "setting": "[6]; DMSO", "result": "✓"},
      {"measurement": "solubility of dicyclanil, soluble at 15%", "setting": "[6]; DMSO", "result": "✓"},
      {"measurement": "solubility of dicyclanil, soluble at 20%", "setting": "[6]; DMSO", "result": "✓"},
      {"measurement": "solubility of dicyclanil, soluble at 25%", "setting": "[6]; DMSO", "result": "✓"},
      {"measurement": "solubility of dicyclanil, soluble at 5%", "setting": "[6]; EL, 5%", "result": "✓"},
      {"measurement": "solubility of dicyclanil, soluble at 5%", "setting": "[6]; GF, 5%", "result": "✓"},
      {"measurement": "solubility of dicyclanil, soluble at 10%", "setting": "[6]; GF", "result": "✓"},
      {"measurement": "solubility of dicyclanil, soluble at 5%", "setting": "[6]; IPA, 5%", "result": "less"},
      {"measurement": "solubility of dicyclanil, soluble at 5%", "setting": "[6]; PEG400, 5%", "result": "✓"},
      {"measurement": "solubility of dicyclanil, soluble at 5%", "setting": "[6]; PG, 5%", "result": "less"}
    ]},
    {"compound": "CCCCC(CC)COC(=O)CC(C(=O)OCC(CC)CCCC)S(=O)(=O)[O-].[Na+]", "note": "(centres unmarked) [Docusate sodium]", "values": [
      {"measurement": "Dicyclanil Crystal Formation, 3 days", "setting": "[5]; [7]", "result": "Large crystals up to 200μ"},
      {"measurement": "Dicyclanil Crystal Formation, Initial", "setting": "[5]; [7]", "result": "Up to 100μ"}
    ]},
    {"compound": "CCCCCCCCCCCCOS(=O)(=O)[O-].[Na+]", "note": "[Sodium lauryl sulphate]", "values": [
      {"measurement": "Dicyclanil Crystal Formation, 3 days", "setting": "[5]; [7]", "result": "Large crystals up to 200μ"},
      {"measurement": "Dicyclanil Crystal Formation, Initial", "setting": "[5]; [7]", "result": "Mostly up to 200μ"}
    ]}
  ]
}
